Some test systems named below: HCT-15; TK-10; NCI-H23; A498; Malme-3M; SR; SK-MEL-2; A549; RXF 393; SN12C; M14; SK-OV-3; SF-295; CAKI-1; RPMI-8226; LOX IMVI; HT-29; ACHN; EKVX; T47D.
Common to all, as to assay: NCI-60 cell line screen, 48 h

SMILES strings stand for the structures.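 Grown in 96-well plates, cells were treated for 48 hours with each compound at five concentrations. Insufficient inhibition: endpoint recorded as highest concentration tested. GI50 marks 50% less growth.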 Activity calls are given as the source filed them. Rule as the data show it: active = GI50 up to about 1.1 µM and inactive = higher.

`COc1ccc(OC2(c3cc(OC)ccc3OC)OC(=O)c3ccccc32)cc1` (stereo not drawn): the GI50 in the assay on HCT-15 is > 100 µM; in the assay on TK-10, > 100 µM (inactive); with NCI-H23, > 100 µM (inactive); with A498, > 100 µM (inactive); in the assay on Malme-3M, > 100 µM (inactive); with SR, > 100 µM (inactive). Moreover, the GI50 in the assay with SK-MEL-2, in the assay on A549, in the assay with RXF 393, with SN12C, in the assay with M14 and in the assay with SK-OV-3 was > 100 µM (inactive) in each case. In addition, the GI50 in the assay with SF-295, with CAKI-1, in the assay on RPMI-8226, in the assay on LOX IMVI, in the assay with HT-29 and in the assay on ACHN was > 100 µM (inactive) throughout. In the assay on EKVX, the GI50 was > 100 µM (inactive).
With `CN(C)CC(O)CNC(=O)Nc1ccccc1` (stereo not drawn), the GI50 in the assay on HCT-15 was > 100 µM; in the assay on TK-10, > 100 µM (inactive); in the assay on NCI-H23, > 100 µM (inactive); in the assay with A498, > 100 µM (inactive); in the assay on Malme-3M, > 100 µM (inactive); in the assay with SK-MEL-2, > 100 µM (inactive). The GI50 with A549, in the assay with RXF 393, with SN12C, in the assay with M14, in the assay with SK-OV-3 and in the assay on SF-295 was > 100 µM (inactive) throughout. In addition, the GI50 in the assay on CAKI-1, in the assay with T47D, in the assay on RPMI-8226, with LOX IMVI, with HT-29 and in the assay on ACHN was > 100 µM (inactive) throughout. The GI50 in the assay with EKVX was > 100 µM (inactive).
Consider `Cn1cnc2c(sc3nc4ccccc4n32)c1=N`, for which the GI50 was > 100 µM in the assay with HCT-15; > 100 µM (inactive) in the assay with TK-10; > 100 µM (inactive) with NCI-H23; > 100 µM (inactive) with A498; > 100 µM (inactive) with Malme-3M; > 100 µM (inactive) in the assay on SK-MEL-2. For the same compound, the GI50 with A549 is > 100 µM (inactive); with RXF 393, > 100 µM (inactive); with M14 it was > 100 µM (inactive); with SK-OV-3, > 100 µM (inactive); in the assay with SF-295, 68.1 µM (inactive); with CAKI-1, > 100 µM (inactive). Further, the GI50 with T47D is > 100 µM (inactive); in the assay with RPMI-8226, > 100 µM (inactive); in the assay on LOX IMVI, > 100 µM (inactive); in the assay on HT-29 it was > 100 µM (inactive); in the assay on ACHN, > 100 µM (inactive); in the assay with EKVX it was 52.2 µM (inactive).
For the compound `CC12CC(c3ccccc3O1)C(C(=O)Nc1ccc(Cl)cc1Cl)C(=O)N2` (stereo not drawn), the GI50 in the assay with HCT-15 was 54.2 µM; in the assay on NCI-H23, 25.9 µM (inactive); in the assay on Malme-3M it was 39 µM (inactive); in the assay with SK-MEL-2 it was > 100 µM (inactive); in the assay with A549 it was 23.2 µM (inactive); in the assay with M14 it was 18 µM (inactive). In addition, the GI50 is 73.8 µM (inactive) with SK-OV-3; 48.2 µM (inactive) with SF-295; 45 µM (inactive) in the assay on CAKI-1; 20.3 µM (inactive) in the assay on T47D; 44 µM (inactive) in the assay on RPMI-8226; 22.5 µM (inactive) in the assay with LOX IMVI. Moreover, the GI50 in the assay with HT-29 is 40.1 µM (inactive); in the assay with ACHN, 25 µM (inactive); with EKVX, 18.3 µM (inactive).
With `O=C(O)C1=C(C(=O)Nc2ccc(NC(=O)C3=C(C(=O)O)C4C=CC3C4)cc2)C2C=CC1C2`, the GI50 is > 100 µM with HCT-15; > 100 µM (inactive) with TK-10; > 100 µM (inactive) with NCI-H23; > 100 µM (inactive) in the assay with A498; > 100 µM (inactive) with Malme-3M; > 100 µM (inactive) in the assay with SR. Moreover, the GI50 is 69.7 µM (inactive) in the assay on SK-MEL-2; > 100 µM (inactive) in the assay on A549; > 100 µM (inactive) in the assay on RXF 393; > 100 µM (inactive) in the assay on SN12C; > 100 µM (inactive) in the assay with M14; > 100 µM (inactive) in the assay with SK-OV-3. The GI50 in the assay on SF-295, in the assay on CAKI-1, in the assay with RPMI-8226, in the assay with LOX IMVI, in the assay with HT-29 and with ACHN was > 100 µM (inactive) each time. In the assay on EKVX, the GI50 is > 100 µM (inactive).
`COc1ccccc1C1(c2c(OC(C)C)c(=O)c2=O)SCCCS1`: the GI50 is > 100 µM with HCT-15; > 100 µM (inactive) with TK-10; > 100 µM (inactive) with NCI-H23; > 100 µM (inactive) with A498; > 100 µM (inactive) in the assay on SK-MEL-2; > 100 µM (inactive) with A549. Further, the GI50 in the assay with RXF 393, in the assay on SN12C, in the assay on M14, in the assay on SK-OV-3, with SF-295 and in the assay on CAKI-1 was > 100 µM (inactive) throughout. The GI50 in the assay with T47D, with LOX IMVI, in the assay on HT-29, in the assay on ACHN and in the assay on EKVX was > 100 µM (inactive) throughout.
In the case of `O=C1CC(NC(=O)C(F)(F)F)c2c(Br)sc(N3CCC(c4ccccc4)CC3)c21` (stereo not drawn), the GI50 in the assay on HCT-15 was 25.1 µM; in the assay with TK-10 it was 19 µM (inactive); in the assay on NCI-H23, 6.7 µM (inactive); with A498, > 100 µM (inactive); in the assay with Malme-3M, > 100 µM (inactive); in the assay with SK-MEL-2 it was 0.973 µM (active). Further, the GI50 in the assay with A549 is 32.8 µM (inactive); in the assay with RXF 393 it was 17 µM (inactive); in the assay with SN12C, > 100 µM (inactive); in the assay on M14, > 100 µM (inactive); in the assay with SK-OV-3 it was 64 µM (inactive); in the assay on SF-295, 4.48 µM (inactive). The GI50 was 12.9 µM (inactive) in the assay with CAKI-1; 4.45 µM (inactive) in the assay with T47D; 7.85 µM (inactive) with LOX IMVI; 56.5 µM (inactive) in the assay on HT-29; 28.1 µM (inactive) in the assay with ACHN; 43.9 µM (inactive) with EKVX.
As to `c1ccc(C2=NN=C3C(c4ccccc4)=Nc4ccccc4N3C2)cc1`, the GI50 with HCT-15 is 11.6 µM; with TK-10, 5.08 µM (inactive); in the assay with NCI-H23 it was 47.3 µM (inactive); with A498 it was > 80.2 µM (inactive); in the assay with Malme-3M it was 26 µM (inactive); in the assay with SK-MEL-2, 23.5 µM (inactive). Further, the GI50 in the assay on A549 is 30.6 µM (inactive); in the assay with RXF 393, 10.1 µM (inactive); in the assay with SN12C it was 29.9 µM (inactive); with M14, 13.7 µM (inactive); with SK-OV-3, 53.1 µM (inactive); in the assay with CAKI-1, 43.7 µM (inactive). Moreover, the GI50 was 36.7 µM (inactive) in the assay on T47D; 9.42 µM (inactive) in the assay on RPMI-8226; 10 µM (inactive) with LOX IMVI; 23.3 µM (inactive) in the assay on HT-29; 34.4 µM (inactive) in the assay on ACHN; 23.6 µM (inactive) in the assay with EKVX.
Consider `COc1cc2c(cc1O)CN1CCC23C=C[C@@H](O)CC13` (stereo partly drawn), for which the GI50 in the assay on HCT-15 was 68.4 µM; with TK-10, > 100 µM (inactive); with NCI-H23, 78.7 µM (inactive); with A498, > 100 µM (inactive); in the assay on Malme-3M, > 100 µM (inactive); with SR it was 40.6 µM (inactive). Moreover, the GI50 in the assay on SK-MEL-2 was 44.8 µM (inactive); in the assay on A549, 75.2 µM (inactive); in the assay on RXF 393, 38.2 µM (inactive); in the assay with SN12C, 46.2 µM (inactive); with M14, 41 µM (inactive); with SK-OV-3, > 100 µM (inactive). In addition, the GI50 with SF-295 was 96.2 µM (inactive); in the assay with CAKI-1, > 100 µM (inactive); in the assay with RPMI-8226, > 100 µM (inactive); in the assay on LOX IMVI, 46.6 µM (inactive); in the assay on HT-29, 47.5 µM (inactive); with ACHN, 57.5 µM (inactive). In addition, the GI50 in the assay on EKVX is 65.8 µM (inactive).
Regarding `CC1=CCC(=O)[C@]2(C)C(CC(=O)O)[C@]3(C)C4=C(C)C(c5ccoc5)C[C@@H]4O[C@@H]3[C@H](O)[C@@H]12` (stereo partly drawn), the GI50 is > 100 µM in the assay on HCT-15; > 100 µM (inactive) in the assay with TK-10; > 100 µM (inactive) in the assay on NCI-H23; > 100 µM (inactive) with A498; > 100 µM (inactive) with Malme-3M; > 100 µM (inactive) with SK-MEL-2. Also, the GI50 in the assay on A549, in the assay with SN12C, with M14, in the assay on SK-OV-3, in the assay with SF-295 and with CAKI-1 was > 100 µM (inactive) each time. Besides, the GI50 with T47D, in the assay with RPMI-8226, in the assay with LOX IMVI, with ACHN and with EKVX was > 100 µM (inactive) each time.
On to `CC1=C2C(=CC(C)(C)[C@@H]2O)C(=O)[C@](C)(O)C12CC2` [ILLUDIN M], for which the GI50 in the assay on HCT-15 is 0.0129 µM; in the assay on TK-10, < 0.0182 µM (active); in the assay on NCI-H23 it was < 0.0126 µM (active); with A498, 0.0206 µM (active); with Malme-3M, 0.022 µM (active); in the assay with SR, 0.01 µM (active). For the same compound, the GI50 in the assay on SK-MEL-2 was 0.0134 µM (active); in the assay with A549 it was 0.0275 µM (active); in the assay on RXF 393, 0.00329 µM (active); with SN12C it was 0.0236 µM (active); in the assay with M14 it was 0.0156 µM (active); in the assay on SK-OV-3, 0.0197 µM (active). The GI50 with SF-295 was < 0.018 µM (active); in the assay with CAKI-1, 0.0209 µM (active); with RPMI-8226, 0.839 µM (active); in the assay with LOX IMVI it was 0.0172 µM (active); in the assay on HT-29, < 0.0126 µM (active); with ACHN, < 0.011 µM (active). Besides, the GI50 in the assay with EKVX is 0.0773 µM (active).

These data come from ChEMBL document CHEMBL1201862, “PubChem BioAssay data set” (2004).
